Patent publication US20250270209A1 (INTERLINE THERAPEUTICS, INC., priority 2022, published 2025)

Experiments:
LRRK2 wild type enzyme = LRRK2 wild type enzyme (Homo sapiens, UniProt Q5S007); experiment: Biochemical Assay: LRRK2 TR-FRET (LanthaScreen) kinase assay with LRRKtide substrate; details: LRRK2 Inhibition, Table 8
How it was run: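 Human wild-type LRRK2 (3 nM) preincubated 15 min with compound (11-point, 3-fold, top 10 μM), then reacted 120 min at 23 °C with 400 nM LRRKtide and 25 μM ATP, pH 8.0. Stopped with EDTA; Tb-anti-pLRRKtide TR-FRET read after 30 min.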

[1] = target: T1, wild type LRRK2 overexpressed in recombinant HEK-293T cells (Homo sapiens, UniProt Q5S007); experiment: pS935 LRRK2 Cell Assay (HTRF, phospho-LRRK2 Ser935); type: cell-based; details: LRRK2 Inhibition, Table 8, 2 hours compound incubation
T1 construct: host or cells: HEK293T (transient transfection with pCMV-LRRK2 WT plasmid)
T1 sequence (Q5S007 whole entry): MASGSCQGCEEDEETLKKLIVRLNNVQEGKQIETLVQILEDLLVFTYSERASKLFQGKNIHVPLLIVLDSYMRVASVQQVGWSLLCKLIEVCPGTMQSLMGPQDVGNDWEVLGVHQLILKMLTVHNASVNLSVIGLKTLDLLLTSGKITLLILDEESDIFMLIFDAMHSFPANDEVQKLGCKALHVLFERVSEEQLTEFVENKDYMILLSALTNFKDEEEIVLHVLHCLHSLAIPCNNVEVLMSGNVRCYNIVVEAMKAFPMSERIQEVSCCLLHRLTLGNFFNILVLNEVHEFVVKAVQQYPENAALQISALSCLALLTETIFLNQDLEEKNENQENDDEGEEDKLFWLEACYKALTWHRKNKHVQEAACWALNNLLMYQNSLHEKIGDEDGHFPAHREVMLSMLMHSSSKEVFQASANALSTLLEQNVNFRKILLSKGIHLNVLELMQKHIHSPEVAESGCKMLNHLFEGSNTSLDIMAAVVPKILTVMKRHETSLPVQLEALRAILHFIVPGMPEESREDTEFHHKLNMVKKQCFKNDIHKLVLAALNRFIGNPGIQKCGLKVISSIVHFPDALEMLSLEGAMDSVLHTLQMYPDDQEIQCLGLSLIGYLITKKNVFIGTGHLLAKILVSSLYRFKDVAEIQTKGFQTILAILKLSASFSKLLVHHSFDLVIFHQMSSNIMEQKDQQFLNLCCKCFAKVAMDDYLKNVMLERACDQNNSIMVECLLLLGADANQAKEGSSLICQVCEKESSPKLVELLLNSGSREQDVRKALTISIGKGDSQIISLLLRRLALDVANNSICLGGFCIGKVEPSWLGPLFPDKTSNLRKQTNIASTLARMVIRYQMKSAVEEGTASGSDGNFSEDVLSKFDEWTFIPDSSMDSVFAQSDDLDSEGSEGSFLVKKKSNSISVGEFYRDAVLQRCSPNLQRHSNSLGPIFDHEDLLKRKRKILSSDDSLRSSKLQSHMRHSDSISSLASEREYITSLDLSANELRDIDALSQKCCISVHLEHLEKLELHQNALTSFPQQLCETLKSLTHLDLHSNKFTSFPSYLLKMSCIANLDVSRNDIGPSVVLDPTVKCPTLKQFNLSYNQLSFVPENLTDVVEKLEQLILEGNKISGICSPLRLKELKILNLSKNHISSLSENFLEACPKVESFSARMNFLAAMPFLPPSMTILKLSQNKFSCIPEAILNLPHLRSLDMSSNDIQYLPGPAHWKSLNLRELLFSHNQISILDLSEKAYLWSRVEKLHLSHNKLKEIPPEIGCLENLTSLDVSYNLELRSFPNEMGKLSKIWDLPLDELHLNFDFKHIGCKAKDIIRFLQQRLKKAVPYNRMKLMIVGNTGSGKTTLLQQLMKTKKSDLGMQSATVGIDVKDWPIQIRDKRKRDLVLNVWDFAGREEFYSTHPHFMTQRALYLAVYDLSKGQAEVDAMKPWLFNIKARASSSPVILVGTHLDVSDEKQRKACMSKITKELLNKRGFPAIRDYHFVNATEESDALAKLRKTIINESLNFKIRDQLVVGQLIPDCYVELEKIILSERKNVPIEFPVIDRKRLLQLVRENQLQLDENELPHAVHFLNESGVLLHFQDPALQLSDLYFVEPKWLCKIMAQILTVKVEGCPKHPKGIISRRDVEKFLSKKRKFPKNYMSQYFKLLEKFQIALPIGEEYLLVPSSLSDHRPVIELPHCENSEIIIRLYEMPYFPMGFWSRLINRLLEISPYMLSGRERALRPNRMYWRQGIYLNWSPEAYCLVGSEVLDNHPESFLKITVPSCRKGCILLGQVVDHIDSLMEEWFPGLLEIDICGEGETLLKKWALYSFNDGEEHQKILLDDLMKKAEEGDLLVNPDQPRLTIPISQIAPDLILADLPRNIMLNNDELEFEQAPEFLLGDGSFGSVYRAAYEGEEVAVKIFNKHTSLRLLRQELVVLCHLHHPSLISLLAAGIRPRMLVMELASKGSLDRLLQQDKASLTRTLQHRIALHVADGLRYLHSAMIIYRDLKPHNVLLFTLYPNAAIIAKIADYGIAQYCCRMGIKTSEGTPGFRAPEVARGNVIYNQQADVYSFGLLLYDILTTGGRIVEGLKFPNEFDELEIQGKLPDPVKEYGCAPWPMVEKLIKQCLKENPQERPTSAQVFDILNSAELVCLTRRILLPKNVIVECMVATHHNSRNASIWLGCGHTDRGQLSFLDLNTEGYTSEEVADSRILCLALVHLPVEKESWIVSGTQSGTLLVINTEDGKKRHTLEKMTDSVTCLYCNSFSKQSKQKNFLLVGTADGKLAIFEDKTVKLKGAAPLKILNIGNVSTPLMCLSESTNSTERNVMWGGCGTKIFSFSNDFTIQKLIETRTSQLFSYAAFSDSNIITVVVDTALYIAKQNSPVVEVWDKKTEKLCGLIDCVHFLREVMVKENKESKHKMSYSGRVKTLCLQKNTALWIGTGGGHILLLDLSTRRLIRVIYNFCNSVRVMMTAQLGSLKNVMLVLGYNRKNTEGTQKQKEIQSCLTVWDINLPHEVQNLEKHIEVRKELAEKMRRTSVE
How it was run: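 HEK-293T cells transiently transfected with wild-type LRRK2 for 24 h, plated overnight, then treated 2 h at 37° C with compound (top 10 μM, 3-fold, 9 doses, duplicates, 0.2% DMSO). Lysates probed overnight at 23° C by sandwich HTRF for pSer935; 665/615 nm ratio read.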

LRRK2 wild type enzyme, sequence (Q5S007 whole entry): as above

Compound | IC50 (LRRK2 wild type enzyme) | IC50 [1]
C[C@@H]1C[C@H](n2c(CC(=O)Nc3ccno3)nc3cnc4ccc(C#N)cc4c32)CCO1 [Compound 165, 2-{8-cyano-1-[(2R,4R)-2-methyloxan-4-yl]-1H-imidazo[4,5-c]quinolin-2-yl}-N-(1,2-oxazol-5-yl)acetamide] | 0.789 nM | 10.6 nM
COCCCNC(=O)Cc1nc2cnc3ccc(C#N)cc3c2n1[C@@H]1CCO[C@H](C)C1 [Compound 166, 2-{8-cyano-1-[(2R,4R)-2-methyloxan-4-yl]-1H-imidazo[4,5-c]quinolin-2-yl}-N-(3-methoxypropyl)acetamide] | 0.364 nM | 12 nM
C[C@@H]1C[C@H](n2c(CC(=O)NCCC(F)(F)F)nc3cnc4ccc(C#N)cc4c32)CCO1 [Compound 167, 2-{8-cyano-1-[(2R,4R)-2-methyloxan-4-yl]-1H-imidazo[4,5-c]quinolin-2-yl}-N-(3,3,3-trifluoropropyl)acetamide] | 0.638 nM | 46.2 nM
C[C@@H]1C[C@H](n2c(CC(=O)Nc3cccnn3)nc3cnc4ccc(C#N)cc4c32)CCO1 [Compound 168, 2-{8-cyano-1-[(2R,4R)-2-methyloxan-4-yl]-1H-imidazo[4,5-c]quinolin-2-yl}-N-(pyridazin-3-yl)acetamide] | 0.375 nM | 8.76 nM
C[C@@H]1C[C@H](n2c(CC(=O)Nc3ccnn3C)nc3cnc4ccc(C#N)cc4c32)CCO1 [Compound 169, 2-{8-cyano-1-[(2R,4R)-2-methyloxan-4-yl]-1H-imidazo[4,5-c]quinolin-2-yl}-N-(1-methyl-1H-pyrazol-5-yl)acetamide] | 0.319 nM | 14.5 nM
C[C@@H]1C[C@H](n2c(CCC(=O)NCC3CC3)nc3cnc4ccc(C#N)cc4c32)CCO1 [Compound 170, 3-{8-cyano-1-[(2R,4R)-2-methyloxan-4-yl]-1H-imidazo[4,5-c]quinolin-2-yl}-N-(cyclopropylmethyl)propanamide] | 3.11 nM | 329 nM
COCCn1cc(N2CC(c3nc4cnc5ccc(C#N)cc5c4n3[C@@H]3CCO[C@H](C)C3)CC2=O)cn1 (stereo partly drawn) [Compound 171, 2-{1-[1-(2-methoxyethyl)-1H-pyrazol-4-yl]-5-oxopyrrolidin-3-yl}-1-[(2R,4R)-2-methyloxan-4-yl]-1H-imidazo[4,5-c]quinoline-8-carbonitrile] | 1.46 nM | 434 nM
C[C@@H]1C[C@H](n2c(CC(=O)NC[C@H]3CCOC3)nc3cnc4ccc(C#N)cc4c32)CCO1 [Compound 172, 2-{8-cyano-1-[(2R,4R)-2-methyloxan-4-yl]-1H-imidazo[4,5-c]quinolin-2-yl}-N-{[(3R)-oxolan-3-yl]methyl}acetamide] | 0.567 nM | 37.6 nM
C[C@@H]1C[C@H](n2c(CC(=O)NC[C@@H]3CCOC3)nc3cnc4ccc(C#N)cc4c32)CCO1 [Compound 173, 2-{8-cyano-1-[(2R,4R)-2-methyloxan-4-yl]-1H-imidazo[4,5-c]quinolin-2-yl}-N-{[(3S)-oxolan-3-yl]methyl}acetamide] | 0.413 nM | 38.1 nM
COCCn1ccc(NC(=O)Cc2nc3cnc4ccc(C#N)cc4c3n2[C@@H]2CCO[C@H](C)C2)n1 [Compound 174, 2-{8-cyano-1-[(2R,4R)-2-methyloxan-4-yl]-1H-imidazo[4,5-c]quinolin-2-yl}-N-[1-(2-methoxyethyl)-1H-pyrazol-3-yl]acetamide] | 0.316 nM | 5.35 nM
C[C@@H]1C[C@H](n2c(CC(=O)Nc3ccn(CCO)n3)nc3cnc4ccc(C#N)cc4c32)CCO1 [Compound 175, 2-{8-cyano-1-[(2R,4R)-2-methyloxan-4-yl]-1H-imidazo[4,5-c]quinolin-2-yl}-N-[1-(2-hydroxyethyl)-1H-pyrazol-3-yl]acetamide] | 0.32 nM | 132 nM
Cc1cc(CNC(=O)Cc2nc3cnc4ccc(C#N)cc4c3n2[C@@H]2CCO[C@H](C)C2)no1 [Compound 176, 2-{8-cyano-1-[(2R,4R)-2-methyloxan-4-yl]-1H-imidazo[4,5-c]quinolin-2-yl}-N-[(5-methyl-1,2-oxazol-3-yl)methyl]acetamide] | 0.323 nM | 5.56 nM
C[C@@H]1C[C@H](n2c(CC(=O)NCC3COC3)nc3cnc4ccc(C#N)cc4c32)CCO1 [Compound 177, 2-{8-cyano-1-[(2R,4R)-2-methyloxan-4-yl]-1H-imidazo[4,5-c]quinolin-2-yl}-N-[(oxetan-3-yl)methyl]acetamide] | 0.524 nM | 124 nM
C[C@@H]1C[C@H](n2c(CC(=O)Nc3ncccn3)nc3cnc4ccc(C#N)cc4c32)CCO1 [Compound 178, 2-{8-cyano-1-[(2R,4R)-2-methyloxan-4-yl]-1H-imidazo[4,5-c]quinolin-2-yl}-N-(pyrimidin-2-yl)acetamide] | 0.34 nM | 3.92 nM
Cc1oncc1CNC(=O)Cc1nc2cnc3ccc(C#N)cc3c2n1[C@@H]1CCO[C@H](C)C1 [Compound 179, 2-(8-cyano-1-((2R,4R)-2-methyltetrahydro-2H-pyran-4-yl)-1H-imidazo[4,5-c]quinolin-2-yl)-N-((5-methylisoxazol-4-yl)methyl)acetamide] | 0.337 nM | 17.1 nM
C[C@@H]1C[C@H](n2c(CC(=O)Nc3cnoc3)nc3cnc4ccc(C#N)cc4c32)CCO1 [Compound 180, 2-{8-cyano-1-[(2R,4R)-2-methyloxan-4-yl]-1H-imidazo[4,5-c]quinolin-2-yl}-N-(1,2-oxazol-4-yl)acetamide] | 0.432 nM | 21.6 nM
C[C@@H]1C[C@H](n2c(CC(=O)NCCCO)nc3cnc4ccc(C#N)cc4c32)CCO1 [Compound 181, 2-{8-cyano-1-[(2R,4R)-2-methyloxan-4-yl]-1H-imidazo[4,5-c]quinolin-2-yl}-N-(3-hydroxypropyl)acetamide] | 0.578 nM | 376 nM
C[C@@H]1C[C@H](n2c(CC(=O)NC3CC3)nc3cnc4ccc(Cl)cc4c32)CCO1 [Compound 183, 2-{8-chloro-1-[(2R,4R)-2-methyloxan-4-yl]-1H-imidazo[4,5-c]quinolin-2-yl}-N-cyclopropylacetamide] | 0.258 nM | 11.1 nM
C[C@@H]1C[C@H](n2c(CC(=O)Nc3ccon3)nc3cnc4ccc(C#N)cc4c32)CCO1 [Compound 184, 2-{8-cyano-1-[(2R,4R)-2-methyloxan-4-yl]-1H-imidazo[4,5-c]quinolin-2-yl}-N-(1,2-oxazol-3-yl)acetamide] | 0.299 nM | 4.73 nM
C[C@@H]1C[C@H](n2c(CC(=O)NC(C)(C)c3ccccn3)nc3cnc4ccc(C#N)cc4c32)CCO1 [Compound 185, 2-{8-cyano-1-[(2R,4R)-2-methyloxan-4-yl]-1H-imidazo[4,5-c]quinolin-2-yl}-N-[2-(pyridin-2-yl)propan-2-yl]acetamide] | 0.42 nM | 2.56 nM
C[C@@H]1C[C@H](n2c(CC(=O)NCC(F)(F)F)nc3cnc4ccc(C#N)cc4c32)CCO1 [Compound 186, 2-{8-cyano-1-[(2R,4R)-2-methyloxan-4-yl]-1H-imidazo[4,5-c]quinolin-2-yl}-N-(2,2,2-trifluoroethyl)acetamide] | 0.556 nM | 43.9 nM
Cc1nn(C)c(C)c1NC(=O)Cc1nc2cnc3ccc(C#N)cc3c2n1[C@@H]1CCO[C@H](C)C1 [Compound 187, 2-{8-cyano-1-[(2R,4R)-2-methyloxan-4-yl]-1H-imidazo[4,5-c]quinolin-2-yl}-N-(1,3,5-trimethyl-1H-pyrazol-4-yl)acetamide] | 0.241 nM | 9.47 nM
C[C@@H]1C[C@H](n2c(CC(=O)Nc3ccn(C)n3)nc3cnc4ccc(C#N)cc4c32)CCO1 [Compound 188, 2-{8-cyano-1-[(2R,4R)-2-methyloxan-4-yl]-1H-imidazo[4,5-c]quinolin-2-yl}-N-(1-methyl-1H-pyrazol-3-yl)acetamide] | 0.321 nM | 7.58 nM
C[C@@H]1C[C@H](n2c(CC(=O)N[C@@H](C)c3ccccn3)nc3cnc4ccc(C#N)cc4c32)CCO1 [Compound 189, 2-{8-cyano-1-[(2R,4R)-2-methyloxan-4-yl]-1H-imidazo[4,5-c]quinolin-2-yl}-N-[(1S)-1-(pyridin-2-yl)ethyl]acetamide] | 0.332 nM | 1.64 nM
C[C@@H]1C[C@H](n2c(CC(=O)N[C@H](C)c3ccccn3)nc3cnc4ccc(C#N)cc4c32)CCO1 [Compound 190, 2-{8-cyano-1-[(2R,4R)-2-methyloxan-4-yl]-1H-imidazo[4,5-c]quinolin-2-yl}-N-[(1R)-1-(pyridin-2-yl)ethyl]acetamide] | 0.696 nM | 18.7 nM
Cc1ccc2ncc3nc(CC(=O)NC4CC4)n([C@@H]4CCO[C@H](C)C4)c3c2c1 [Compound 191, N-cyclopropyl-2-{8-methyl-1-[(2R,4R)-2-methyloxan-4-yl]-1H-imidazo[4,5-c]quinolin-2-yl}acetamide] | 0.961 nM | 65.6 nM
C[C@@H]1C[C@H](n2c(CC(=O)NC3CCOCC3)nc3cnc4ccc(Cl)cc4c32)CCO1 [Compound 192, 2-{8-chloro-1-[(2R,4R)-2-methyloxan-4-yl]-1H-imidazo[4,5-c]quinolin-2-yl}-N-(oxan-4-yl)acetamide] | 0.385 nM | 13.3 nM
C[C@@H]1C[C@H](n2c(CC(=O)Nc3cnn(C)c3)nc3cnc4ccc(Cl)cc4c32)CCO1 [Compound 193, 2-{8-chloro-1-[(2R,4R)-2-methyloxan-4-yl]-1H-imidazo[4,5-c]quinolin-2-yl}-N-(1-methyl-1H-pyrazol-4-yl)acetamide] | 0.261 nM | 5.59 nM
